Two compounds from patent US20240336657A1, “G-ALPHA-S PEPTIDE INHIBITORS AND USES THEREOF” (The Regents of the University of California, priority 2021, published 2024) can be followed below.

Data set [1] in a line: Chemical stability assay in DMEM with 10% FBS. The format is in vitro ADME. Conditions: bovine, 37° C., values represent 95% confidence intervals. The protocol: (§1) These assays were conducted by Pharmaron Beijing CO., Ltd. Cyclic peptides working solutions were prepared at 10 μM in DMEM with 10% FBS (Avantor, Cat #76294-180) or human plasma (Pooled, Male & Female, BioIVT, Cat #HMN666664). The assays were performed in duplicate. Vials were incubated at 37° C. at 60 rpm in a water bath and taken at designated time points including 0, 480, 1080 and 1440 min. For each time point, the initiation of the reaction was staggered so all the time points were terminated with cold acetonitrile containing internal standards (IS, 100 nM alprazolam, 200 nM labetalol, 200 nM Imipramine and 2 μM ketoplofen) at the same time. Samples were vortexed then centrifuged at 4° C. to remove proteins. The supernatants from centrifugation were diluted by ultra-pure H2O and used for LC-MS/MS analysis. All calculations were carried out using GraphPad Prism. Remaining percentages of parent compounds at each time point were estimated by determining the peak area ratios from extractedion chromatograms.

Data set [2] is described as follows: Plasma stability assay in human plasma. In kind it is in vitro ADME. Conditions: both sexes, pooled human plasma, 37° C., values represent 95% confidence intervals. The method, then:
as §1

The target of the next data set is Gαi (Homo sapiens, UniProt P63096). As to the kind of experiment: Nucleotide exchange step (GDP dissociation / GTPγS binding). The settings on record: compared with Gαs. In kind it is biochemical. The method, then:
Gα proteins were diluted to 400 nM in the EDTA buffer (20 mM HEPES 7.5, 150 mM NaCl, 1 mM EDTA-Na 8.0, 2 mM DTT). [^3H]GDP (1 mCi/mL, 25.2 μM) was added to a final concentration of 1.2 μM, followed by cyclic peptides addition. After incubation at 20° C. for 30 minutes, the same volume of assay buffer ([…] HEPES-Na 7.5, 150 mM NaCl, 2 mM MgCl2, and 1 mM GDP) was added to initiate [^3H]GDP dissociation. At various points, […] was removed and mixed with 390 μL of ice-cold wash buffer (20 mM HEPES 7.5, 150 mM NaCl, 20 mM MgCl2). The mixture was immediately filtered through a mixed cellulose membrane (25 mm, 0.22 μm) held by a microanalysis filter holder (EMD Millipore). The membrane was washed by ice-cold wash buffer (500 μL×3), put in a 6-mL plastic vial and air-dried (room temperature 1.5 h). 5 mL of CytoScint-ES Liquid Scintillation Cocktail was added to each vial. After incubation overnight at room temperature, the vial was used for liquid scintillation counting with a LS 6500 Multi-Purpose Scintillation Counter.
Gα proteins were diluted to 10 μM with dilution buffer (20 mM HEPES 7.5, 150 mM NaCl, 1 mM MgCl2, 2 mM DTT, and 20 μM GDP) and incubated with 5× stocks of cyclic peptides at room temperature for 2 hours. GTPγS binding was initiated by mixing with the reaction buffer at room temperature (50 nM [35S]GTPγS and 100 μM GTPγS in dilution buffer) at room temperature. […]

Positions of bridges follow the written chain, without caps; N, C: chain ends. Non-standard residues stand in square brackets, D forms with d. Residues, ends and D or L forms follow the SMILES beside them.

Gαi, sequence (P63096 whole entry): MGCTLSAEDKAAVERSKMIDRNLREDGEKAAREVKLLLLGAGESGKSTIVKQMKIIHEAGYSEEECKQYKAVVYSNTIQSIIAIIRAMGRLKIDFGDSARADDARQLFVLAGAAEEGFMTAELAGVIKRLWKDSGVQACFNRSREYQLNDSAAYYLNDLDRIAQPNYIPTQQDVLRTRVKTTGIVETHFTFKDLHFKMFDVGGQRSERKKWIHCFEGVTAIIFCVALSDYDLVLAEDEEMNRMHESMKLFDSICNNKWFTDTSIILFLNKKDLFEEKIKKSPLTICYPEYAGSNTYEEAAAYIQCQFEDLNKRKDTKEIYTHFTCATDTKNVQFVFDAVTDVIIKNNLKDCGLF

`CC[C@H](C)[C@@H]1NC(=O)[C@H](CC(C)C)NC(=O)[C@@H](Cc2ccc(O)cc2)NC(=O)CSC[C@@H](C(=O)NCC(N)=O)NC(=O)[C@@H]2CCCN2C(=O)[C@H](CC(C)C)NC(=O)[C@H](CC(N)=O)NC(=O)[C@H](CC(C)C)NC(=O)[C@H](C)NC(=O)[C@H](Cc2c[nH]c3ccccc23)NC(=O)[C@H](CCC(N)=O)NC(=O)[C@H](CCCNC(=N)N)NC(=O)[C@H](Cc2ccccc2)NC(=O)[C@H]([C@@H](C)O)NC1=O` [GD20-F10L] ({CH2CO}-[dY]LITFRQWALNLPCG-NH2; thioether N-14): the half-life at 10 μM in data set [1] was in the range of 37.4 to 50.3 h; in data set [2], 7.16 to 12.7 h.

With `CC[C@H](C)[C@@H]1NC(=O)[C@H](C)NC(=O)[C@H](Cc2ccc(O)cc2)NC(=O)[C@H](C(C)C)NC(=O)[C@H](CO)NC(=O)[C@H](CCC(=O)O)NC(=O)[C@H](Cc2ccccc2)NC(=O)[C@@H](Cc2ccc(O)cc2)NC(=O)CSC[C@@H](C(=O)NCC(N)=O)NC(=O)[C@H](CC(C)C)NC(=O)[C@H]([C@@H](C)O)NC(=O)CNC(=O)[C@H](Cc2c[nH]c3ccccc23)NC1=O` [GN13] ({CH2CO}-[dY]FESVYAIWGTLCG-NH2; thioether N-13), the “sensitivity of the nucleotide exchange step of Gαi” value at Gαi is on record as “much less sensitive”.
